Like-named read-outs stand apart in the source and are kept apart here. No end group written: not given here.
System: HeLa 654 cells
Assay: eGFP exon-skipping reporter assay, flow cytometry analysis of GFP fluorescence
Format: cell-based
[1] = eGFP fluorescence of CPP-PMO IVS2-654 conjugate compared to unconjugated PMO, 5 μM, 22 hours, MEM with 10% FBS
[2] = […], 5 μM, 22 hours, MEM with 10% FBS

| Substance | Activity Relative to PMO [1] | Activity Relative to PMO [2] | also measured |
| --- | --- | --- | --- |
| SAP(E) | 0.8 |  |  |
| Buforin 2 | 1.9 |  |  |
| Transportan 10 |  | 0.8 |  |
| Penetratin | 4.2 |  |  |
| Melittin |  | 4.5 |  |
| Pyrrhocoricin (VDKGSYLPRPTPPRPIYNRN; ends and bridges not checked; also: conjugated to PMO cargo; UniProt P37362 1-20, looked up) |  |  | Activity Relative to PMO: 1.4 |
| λN(1-22): PMO IVS2-654 conjugated to CPP MDAQTRRRERRAEKQAQWKAAN (also: conjugated to PMO IVS2-654 cargo; UniProt P03045 1-22, looked up, fragment) |  | 1.4 |  |

Source: patent US12138312B2, “Cell-penetrating peptides for antisense delivery” (Sarepta Therapeutics, Inc., priority 2017, dated 2024)
